Data reported in ChEMBL document CHEMBL1156817, “Fructose-1,6-bisphosphatase Inhibitors. 2. Design, synthesis, and structure-activity relationship of a series of phosphonic acid containing benzimidazoles that function as 5'-adenosinemonophosphate (AMP) mimics” (J Med Chem, 2010).

Experiments:
[1] = target: T1, Fructose-1,6-bisphosphatase 1 (Homo sapiens, UniProt P09467); test: Inhibition of human liver FBPase 1
T1 sequence (P09467 whole entry): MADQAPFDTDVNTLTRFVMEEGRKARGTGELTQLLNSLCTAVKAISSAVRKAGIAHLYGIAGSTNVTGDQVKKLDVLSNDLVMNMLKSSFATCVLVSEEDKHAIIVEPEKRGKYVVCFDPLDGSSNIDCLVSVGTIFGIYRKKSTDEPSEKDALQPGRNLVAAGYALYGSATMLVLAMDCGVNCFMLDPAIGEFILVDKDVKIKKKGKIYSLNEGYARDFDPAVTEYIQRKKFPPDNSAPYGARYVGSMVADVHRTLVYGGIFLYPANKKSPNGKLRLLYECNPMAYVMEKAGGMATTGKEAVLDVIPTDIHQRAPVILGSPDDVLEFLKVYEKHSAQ

[2] = target: T2, Fructose-1,6-bisphosphatase 1 (Rattus norvegicus, UniProt P19112); test: Inhibition of rat liver FBPase 1
T2 sequence (P19112 whole entry): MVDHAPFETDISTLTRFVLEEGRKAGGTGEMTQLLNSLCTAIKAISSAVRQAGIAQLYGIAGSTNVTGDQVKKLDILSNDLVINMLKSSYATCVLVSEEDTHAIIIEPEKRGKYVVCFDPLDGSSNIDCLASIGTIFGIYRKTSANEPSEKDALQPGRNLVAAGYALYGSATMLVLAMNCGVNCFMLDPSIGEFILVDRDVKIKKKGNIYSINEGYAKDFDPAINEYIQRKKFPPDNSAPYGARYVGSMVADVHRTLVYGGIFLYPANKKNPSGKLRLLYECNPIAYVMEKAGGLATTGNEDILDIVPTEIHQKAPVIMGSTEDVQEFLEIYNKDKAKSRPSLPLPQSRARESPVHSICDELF

[3] = tested on: Hepatocyte; test: cells; conditions: Rattus norvegicus
[4] = tested on: Rattus norvegicus; test: Reduction of blood glucose level in 18 hrs fasted normal Sprague-Dawley rat at 10 mg/kg, iv after 1 hr interval; assay type: functional; design: scale not given: the % may be the effect or the level left
[5] = Oral bioavailability in 18 hrs fasted normal Sprague-Dawley rat up to 100 mg/kg by urinary excretion assay; assay type: ADME, organism-based; conditions: urine

Row | IC50 [1] [nM] | IC50 [2] [nM] | SMILES | IC50 [3] [nM] | Activity [4] [%] | bioavailability [5] [%]
1 | 450 | 2000 | CC(C)Cn1c(-c2ccc(P(=O)(O)O)o2)nc2c(N)c(Cl)cc(Cl)c21 | 14000 | – | –
2 | 7000 | 20000 | Nc1cccc2c1nc(-c1ccc(P(=O)(O)O)o1)n2Cc1ccc(C(F)(F)F)cc1 | 100000 | – | –
3 | 900 | 2000 | CC(C)Cn1c(-c2ccc(P(=O)(O)O)o2)nc2c(N)ccc(Cl)c21 | 24000 | – | –
4 | 200 | 2000 | CC(C)Cn1c(-c2ccc(P(=O)(O)O)o2)nc2c(N)c(Cl)ccc21 | 15000 | – | –
5 | 225 | 2000 | CC(C)Cn1c(-c2ccc(P(=O)(O)O)o2)nc2c(N)c(F)c(Cl)cc21 | 16000 | – | –
6 | 280 | 900 | C=Cc1cc(F)c(N)c2nc(-c3ccc(P(=O)(O)O)o3)n(CC(C)C)c12 | 25000 | – | –
7 | 55 | 400 | CC(C)Cn1c(-c2ccc(P(=O)(O)O)o2)nc2c(N)c(F)cc(CCCN(C)C)c21 | – | 44 | –
8 | 6000 | 20000 | Cn1c(-c2ccc(P(=O)(O)O)o2)nc2c(N)cccc21 | 100000 | – | –
9 | 1850 | 20000 | Nc1cccc2c1nc(-c1ccc(P(=O)(O)O)o1)n2Cc1cccc(O)c1 | 100000 | – | –
10 | 60 | 350 | CC(C)Cn1c(-c2ccc(P(=O)(O)O)o2)nc2c(N)c(F)cc(C3CC3)c21 | 1500 | 64 | –
11 | 70 | 500 | CC(C)Cn1c(-c2ccc(P(=O)(O)O)o2)nc2c(N)c(F)cc(CCCCCl)c21 | 3100 | 47 | –
12 | 130 | 2090 | CC(C)Cn1c(-c2ccc(P(=O)(O)O)o2)nc2c(N)c(F)cc(Br)c21 | 5000 | – | –
13 | – | – | CCOC(=O)OCOP(=O)(OCOC(=O)OCC)c1ccc(-c2nc3c(N)c(F)cc(CC)c3n2CC(C)C)o1 | – | – | 2
14 | – | – | CCc1cc(F)c(N)c2nc(-c3ccc(P(=O)(OCC(=O)OC(C)(C)C)OCC(=O)OC(C)(C)C)o3)n(CC(C)C)c12.Cl | – | – | 2
15 | 800 | 2000 | Nc1cccc2c1nc(-c1ccc(P(=O)(O)O)o1)n2CC1CCC1 | 40000 | – | –
16 | 800 | 20000 | Nc1cccc2c1nc(-c1ccc(P(=O)(O)O)o1)n2CC1CC1 | 100000 | – | –
17 | 100 | 650 | CCCc1cc(F)c(N)c2nc(-c3ccc(P(=O)(O)O)o3)n(CC(C)C)c12 | 5500 | 60 | –
18 | 100 | 2000 | CC(C)Cn1c(-c2ccc(P(=O)(O)O)o2)nc2c(N)c(F)cc(Cl)c21 | – | – | –
19 | 80 | 450 | CC(C)Cn1c(-c2ccc(P(=O)(O)O)o2)nc2c(N)c(F)cc(CCCO)c21 | 1000 | 63 | –
20 | 2500 | 20000 | Nc1cccc2c1nc(-c1ccc(P(=O)(O)O)o1)n2CC1CCCCC1 | 100000 | – | –
21 | 1000 | 2000 | CC(C)Cn1c(-c2ccc(P(=O)(O)O)o2)nc2c(N)c(Br)cc(Br)c21 | 14000 | – | –
22 | 180 | 1300 | CC(C)Cn1c(-c2ccc(P(=O)(O)O)o2)nc2c(N)c(F)cc(-c3ccc(F)cc3)c21 | 21000 | 0 | –
23 | 100 | 2280 | CC(C)Cn1c(-c2ccc(P(=O)(O)O)o2)nc2c(N)c(F)ccc21 | 2400 | – | –
24 | 2250 | 40000 | CCn1c(-c2ccc(P(=O)(O)O)o2)nc2c(N)cccc21 | – | – | –
25 | – | – | CCOC(=O)[C@H](C)NP(=O)(N[C@@H](C)C(=O)OCC)c1ccc(-c2nc3c(N)c(F)cc(CC)c3n2CC(C)C)o1 | – | – | 5
26 | 850 | 2500 | CCC(CC)n1c(-c2ccc(P(=O)(O)O)o2)nc2c(N)c(F)ccc21 | 9500 | – | –

Row | IC50 [1] [nM] | IC50 [2] [nM] | SMILES | IC50 [3] [nM] | Activity [4] [%] | bioavailability [5] [%]
27 | 2500 | 20000 | CCc1ccc2c(nc(-c3ccc(P(=O)(O)O)o3)n2CC(C)C)c1N | 50000 | – | –
28 | 1500 | 4000 | CC(C)Cn1c(-c2ccc(P(=O)(O)O)o2)nc2c(N)cccc21 | 20000 | – | –
29 | 90 | 2000 | CC(C)Cn1c(-c2ccc(P(=O)(O)O)o2)nc2c(N)c(F)cc(-c3ccc(Cl)cc3)c21 | > 25000 | – | –
30 | 150 | 850 | CCC(CC)Cn1c(-c2ccc(P(=O)(O)O)o2)nc2c(N)c(F)ccc21 | 5000 | – | –
31 | 400 | 2000 | CC(C)Cn1c(-c2ccc(P(=O)(O)O)o2)nc2c(N)ccc(Br)c21 | 14000 | – | –
32 | 9500 | 20000 | CC(C)(C)c1ccc(Cn2c(-c3ccc(P(=O)(O)O)o3)nc3c(N)cccc32)cc1 | 100000 | – | –
33 | – | 2180 | Nc1c(F)ccc2c1nc(-c1ccc(P(=O)(O)O)o1)n2CC1CC1 | 3300 | – | –
34 | – | – | CCc1cc(F)c(N)c2nc(-c3ccc(P(=O)(OCC(=O)OC(C)(C)C)OCC(=O)OC(C)(C)C)o3)n(CC(C)C)c12 | – | – | 2
35 | 3250 | 20000 | Nc1cccc2c1nc(-c1ccc(P(=O)(O)O)o1)n2CC1CCCCCC1 | 100000 | – | –
36 | 10000 | – | CC(C)Cn1c(-c2ccc(P(=O)(O)O)o2)nc2c(N)c(Br)c(Cl)c(Cl)c21 | – | – | –
37 | 1100 | 2000 | CCCn1c(-c2ccc(P(=O)(O)O)o2)nc2c(N)cccc21 | 37000 | – | –
38 | 100 | 2100 | CC(C)CCCc1cc(F)c(N)c2nc(-c3ccc(P(=O)(O)O)o3)n(CC(C)C)c12 | 23000 | – | –
39 | 2500 | 20000 | Nc1cccc2c1nc(-c1ccc(P(=O)(O)O)o1)n2Cc1ccc(-c2ccccc2)cc1 | 100000 | – | –
40 | 1500 | 2000 | Nc1cccc2c1nc(-c1ccc(P(=O)(O)O)o1)n2CC1CCCC1 | 45000 | – | –
41 | 4200 | 20000 | Nc1cccc2c1nc(-c1ccc(P(=O)(O)O)o1)n2Cc1ccoc1 | 100000 | – | –
42 | 210 | 1600 | CC(C)Cn1c(-c2ccc(P(=O)(O)O)o2)nc2c(N)c(F)cc(CCC(C)(C)C)c21 | 18000 | 28 | –
43 | 3000 | 20000 | CCCc1ccc2c(nc(-c3ccc(P(=O)(O)O)o3)n2CC(C)C)c1N | 50000 | – | –
44 | 500 | 20000 | CC(C)Cn1c(-c2ccc(P(=O)(O)O)o2)nc2c(N)c(O)ccc21 | 25000 | – | –
45 | – | – | CCc1cc(F)c(N)c2nc(-c3ccc(P(=O)(Oc4ccc(C(=O)OC(C)(C)C)cc4)Oc4ccc(C(=O)OC(C)(C)C)cc4)o3)n(CC(C)C)c12 | – | – | 2
46 | 700 | 2000 | COc1ccc2c(nc(-c3ccc(P(=O)(O)O)o3)n2CC(C)C)c1N | 16000 | – | –
47 | 1000 | 2000 | Nc1cccc2c1nc(-c1ccc(P(=O)(O)O)o1)n2CC12CCC(CC1)C2 | 25000 | – | –
48 | 4000 | 20000 | Nc1cccc2c1nc(-c1ccc(P(=O)(O)O)o1)n2Cc1ccsc1 | 100000 | – | –
49 | – | – | CCc1cc(F)c(N)c2nc(-c3ccc(P(=O)(OCCSC(C)=O)OCCSC(C)=O)o3)n(CC(C)C)c12 | – | – | 2
50 | 400 | – | CC(C)Cn1c(-c2ccc(P(=O)(O)O)o2)nc2c(N)c(Br)ccc21 | 14000 | – | –
51 | 5000 | 20000 | Nc1cccc2c1nc(-c1ccc(P(=O)(O)O)o1)n2Cc1ccccc1 | 100000 | – | –
52 | 90 | 900 | CC(C)Cn1c(-c2ccc(P(=O)(O)O)o2)nc2c(N)c(F)cc(-c3ccccc3)c21 | 18000 | 0 | –
